Test results as given in patent publication US20260115250A1, “METHODS OF TREATING AGE-RELATED MACULAR DEGENERATION” (Character Biosciences, Inc., priority 2022, published 2026).
pKd: −log10 of the molar value. Like-named read-outs stand apart in the source and are kept apart here. Ends that are not written are not given here. Peptide text beside a SMILES is read from it.

Experiments:
ARPE-19 cells [1] = assay: ARPE-19 cholesterol efflux; type: cell-based, human; conditions: ARPE-19, 20 μM peptide, 4 hours
Experimental: Fully confluent 96-well plates of ARPE-19 cells were treated for 1 hour in serum-free DMEM containing 10 mM methyl-β-cyclodextrin, 100 μM cholesterol, and 25 μM BODIPY cholesterol. Cells were then washed and incubated overnight in serum-free DMEM containing 1 μM GW3965, 2 μg/mL ACAT inhibitor, and 0.2% BSA (LXR Agonist treated), or serum free DMEM containing 2 μg/mL ACAT inhibitor, and 0.2% BSA (Control). Cells were washed and incubated with 20 μM peptides diluted in serum-free Fluorobrite DMEM for 4 hours at 37° C. Media was transferred to a new 96-well plate and fresh serum-free Fluorobrite DMEM was placed on the cells. Media and cellular fluorescence were read on a Promega GloMax at 475 nm excitation, 500-550 emission. Fluorescence values were background corrected from no treatment conditions and percent efflux was calculated by the following equation: % efflux=(Media Fluorescence values)/(Media+Cell Fluorescence values). Data are presented as mean+SD over two runs per peptide.

[2] = key assays (summary statement on homologous variants)
HMC3 cells = assay: HMC3 cholesterol efflux; type: cell-based, human; conditions: HMC3, 20 μM peptide, 4 hours
Experimental: FIGS. 27A-27B and FIG. 28 illustrate HMC3 cholesterol efflux. Fully confluent 96-well plates of HMC3 cells were treated for 1 hour in serum-free EMEM containing 10 mM methyl-β-cyclodextrin, 100 μM cholesterol, and 25 μM BODIPY cholesterol. Cells were then washed and incubated overnight in serum free EMEM containing 1 μM LXR agonist GW3965, 2 μg/mL ACAT inhibitor, and 0.2% BSA (LXR Agonist treated), or serum-free EMEM containing 2 μg/mL ACAT inhibitor, and 0.2% BSA (Control). Cells were washed and incubated with 20 μM peptides diluted in serum-free Fluorobrite DMEM for 4 hours at 37° C. Media was transferred to a new 96-well plate and fresh serum-free Fluorobrite DMEM was placed on the cells. Media and cellular fluorescence were read on a Promega GloMax at 475 nm excitation, 500-550 emission. Fluorescence values were background corrected from no treatment conditions and percent efflux was calculated by the following equation: % efflux=(Media Fluorescence values)/(Media+Cell Fluorescence values). Data are presented as mean+SD over two runs per peptide.
FIGS. 30A-30J show HMC3 cholesterol efflux titration curves for the indicated peptides. Fully confluent 96-well plates of HMC3 cells were treated for 1 hour in serum-free EMEM containing 10 mM methyl-β-cyclodextrin, 100 μM cholesterol, and 25 μM BODIPY cholesterol. Cells were then washed and incubated overnight in serum free EMEM containing 1 μM GW3965, 2 μg/mL ACAT inhibitor, and 0.2% BSA (LXR Agonist treated), or serum free EMEM containing 2 μg/mL ACAT inhibitor, and 0.2% BSA (Control). Cells were washed and incubated with 0-100 μM peptides serially diluted in serum-free Fluorobrite DMEM for 4 hours at 37° C. Media was transferred to a new 96-well plate and fresh serum-free Fluorobrite DMEM was placed on the cells. Media and cellular fluorescence were read on a Promega GloMax at 475 nm excitation, 500-550 emission. Fluorescence values were background corrected from no treatment conditions and percent efflux was calculated by the following equation: % efflux=(Media Fluorescence values)/(Media+Cell Fluorescence values). Data are presented as mean+SD over two runs per peptide.

ARPE-19 cells [3] = assay: ARPE-19 cell viability assay (Cell Titer Glo); type: cell-based, human; conditions: 100 μM peptide, 1.5 hours
Experimental: ARPE-19 cells were seeded in 96-well plates at 25,000 cells/well and allowed to adhere to the plate surface for at least 24 hours. Peptides were diluted in serum-free DMEM: F12 to a final concentration of 100 μM. Cells were washed, then incubated in 100 μM peptide solution for 1.5 hours at 37° C. Plates were brought to room temperature for 30 minutes, then washed with DPBS. Cells were incubated in a 1:1 mixture of DPBS and Cell Titer Glo 2.0 Reagent for 10 minutes at room temperature, then cell luminescence was read on a plate reader. Viability values were background corrected, and 0% viability is determined by luminescence values of cells treated with 1% Triton-X-100. Data are presented as mean+SD over two separate runs.

LDLR = LDLR (Homo sapiens, UniProt P01130); assay: LDLR binding (SPR), high surfactant preparation
LDLR, sequence (P01130 22-860): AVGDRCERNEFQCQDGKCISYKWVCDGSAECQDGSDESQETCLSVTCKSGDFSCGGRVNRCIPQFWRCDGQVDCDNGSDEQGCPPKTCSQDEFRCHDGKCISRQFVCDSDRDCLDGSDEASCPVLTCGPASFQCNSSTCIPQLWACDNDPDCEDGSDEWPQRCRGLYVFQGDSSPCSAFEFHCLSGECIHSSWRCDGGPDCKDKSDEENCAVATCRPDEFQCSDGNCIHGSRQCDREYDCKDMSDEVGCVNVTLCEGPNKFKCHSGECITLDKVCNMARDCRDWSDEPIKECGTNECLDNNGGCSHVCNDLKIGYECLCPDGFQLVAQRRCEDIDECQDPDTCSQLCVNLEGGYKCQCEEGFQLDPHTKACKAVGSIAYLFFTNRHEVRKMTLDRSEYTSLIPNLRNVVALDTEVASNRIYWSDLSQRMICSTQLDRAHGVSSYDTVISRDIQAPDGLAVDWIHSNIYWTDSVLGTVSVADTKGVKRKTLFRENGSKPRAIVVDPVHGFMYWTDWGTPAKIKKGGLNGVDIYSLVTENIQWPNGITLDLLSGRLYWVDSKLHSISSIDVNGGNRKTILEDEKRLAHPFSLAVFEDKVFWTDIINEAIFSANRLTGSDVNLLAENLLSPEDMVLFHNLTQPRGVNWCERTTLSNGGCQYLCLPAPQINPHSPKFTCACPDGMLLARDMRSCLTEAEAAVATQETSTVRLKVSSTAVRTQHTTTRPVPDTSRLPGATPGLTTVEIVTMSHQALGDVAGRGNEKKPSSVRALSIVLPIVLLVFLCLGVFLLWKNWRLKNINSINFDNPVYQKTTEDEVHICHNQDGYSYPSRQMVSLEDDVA
Experimental: The table shown in FIG. 23 illustrates LDLR binding data (SPR), using a high surfactant preparation. Recombinant LDLR was diluted in 10 mM acetate buffer pH 4.5 and amine coupled to a CM5 chip at 1000 RU. Peptides were diluted to 5 μM in running buffer (HBS-P+, 1 mM CaCl2) and serially diluted 1:3 for 5 total concentrations. Peptides were exposed to immobilized LDLR at a rate of […] for 120 seconds. Between cycles, the chip surface was regenerated with 3 injections of 50 mM NaOH/100 mM EDTA. Multi-Cycle Kinetics was performed on a Biacore Insight Evaluation Software and binding kinetics were analyzed with a 1:1 binding model.

[4] = high surfactant preparation (HBS-P+), 1:1 binding model, read-out: binding KD to LDLR

Row | Compound | cholesterol efflux following LXR agonist treatment (ARPE-19 cells [1]) | activity in key assays of polypeptides homologous to T-087 [2] | cholesterol efflux in the presence of LXR agonist (HMC3 cells) | activity in key assays of polypeptides of the SEQ ID NO. 101 family [2] | ARPE-19 cell viability (ARPE-19 cells [3]) | further results
1 | T-161: variant of peptide T-087 (DAWERFRGLFKELADYFR) | increased cholesterol efflux | sustained or improved activity | – | – | – | –
2 | T-152: variant of peptide T-087 (AAWERFRALFKELADYFR) | increased cholesterol efflux | sustained or improved activity | – | – | – | –
3 | T-136: variant of peptide T-101 (RSGADALESALKELKAFIREWT) | – | – | greater cholesterol efflux | sustained or improved activity | – | –
4 | T-129: variant of peptide T-101 (RSGADALEAALKELKRFIREWT) | – | – | greater cholesterol efflux | sustained or improved activity | – | –
5 | VRGRLVQYRGEVQAMLGQSTEELRVRLASHLRKLRKRLLRDADDLQKRLAVYQA [T-069] | – | – | – | – | substantial change in viability | pKd (LDLR): > 5.00
6 | T-160: variant of peptide T-087 (DAWERFRPLFKELADYFR) | increased cholesterol efflux | sustained or improved activity | – | – | – | –
7 | CSCC[C@H](NC(=O)[C@H](CC(C)C)NC(=O)[C@H](CC(=O)O)NC(=O)[C@H](CCCCN)NC(=O)CNC(=O)[C@H](Cc1ccc(O)cc1)NC(=O)[C@H](CC(=O)O)NC(=O)[C@@H](NC(=O)[C@@H](NC(=O)[C@@H](NC(=O)[C@H](CCC(N)=O)NC(=O)[C@H](Cc1ccccc1)NC(=O)[C@H](Cc1ccc(O)cc1)NC(=O)[C@H](CCC(N)=O)NC(=O)[C@H](CO)NC(=O)[C@@H](NC(=O)[C@H](CC(C)C)NC(=O)[C@H](CO)NC(=O)[C@H](CCCNC(=N)N)NC(=O)[C@H](CC(C)C)NC(=O)[C@H](CC(C)C)NC(=O)[C@H](CCCNC(=N)N)NC(=O)[C@H](CCCCN)NC(=O)[C@H](CCCNC(=N)N)NC(=O)[C@H](CC(C)C)NC(=O)[C@H](CCCCN)NC(=O)[C@H](CCCNC(=N)N)NC(=O)[C@H](CC(C)C)NC(=O)[C@H](Cc1c[nH]cn1)NC(=O)[C@H](CO)NC(=O)[C@H](C)NC(=O)[C@@H](N)CC(C)C)C(C)C)[C@@H](C)O)C(C)C)[C@@H](C)O)C(=O)O [T-065] (H-LASHLRKLRKRLLRSLVSQYFQTVTDYGKDLM-OH) | – | – | – | – | substantial change in viability | pKd (LDLR; [4]): > 5.00
8 | T-163: variant of peptide T-087 (DAWERFRALAKELADYFR) | increased cholesterol efflux | sustained or improved activity | – | – | – | –
9 | CC(C)C[C@H](NC(=O)[C@H](C)NC(=O)[C@H](CCCNC(=N)N)NC(=O)[C@H](Cc1ccccc1)NC(=O)[C@H](CCC(=O)O)NC(=O)[C@H](CCCNC(=N)N)NC(=O)[C@@H](N)Cc1c[nH]c2ccccc12)C(=O)N[C@@H](Cc1ccccc1)C(=O)N[C@@H](CCCCN)C(=O)N[C@@H](CCC(=O)O)C(=O)N[C@@H](CC(C)C)C(=O)N[C@@H](C)C(=O)N[C@@H](CC(=O)O)C(=O)N[C@@H](Cc1ccc(O)cc1)C(=O)N[C@@H](Cc1ccccc1)C(=O)N[C@@H](CCCNC(=N)N)C(=O)N[C@@H](CC(=O)O)C(=O)N[C@@H](C)C(=O)O [T-085] (H-WREFRALFKELADYFRDA-OH) | – | – | – | – | substantial change in viability | –
10 | CC(C)C[C@H](NC(=O)[C@H](CC(=O)O)NC(=O)[C@H](CCCCN)NC(=O)CNC(=O)[C@H](Cc1ccc(O)cc1)NC(=O)[C@H](CC(=O)O)NC(=O)[C@@H](NC(=O)[C@@H](NC(=O)[C@@H](NC(=O)[C@H](CCC(N)=O)NC(=O)[C@H](CCCNC(=N)N)NC(=O)[C@H](Cc1ccc(O)cc1)NC(=O)[C@H](CCC(N)=O)NC(=O)[C@H](CO)NC(=O)[C@@H](NC(=O)[C@H](CC(C)C)NC(=O)[C@H](CO)NC(=O)[C@H](CCCNC(=N)N)NC(=O)[C@H](CC(C)C)NC(=O)[C@H](CC(C)C)NC(=O)[C@H](CCCNC(=N)N)NC(=O)[C@H](CCCCN)NC(=O)[C@H](CCCNC(=N)N)NC(=O)[C@H](CC(C)C)NC(=O)[C@H](CCCCN)NC(=O)[C@H](CCCNC(=N)N)NC(=O)[C@H](CC(C)C)NC(=O)[C@@H](N)Cc1c[nH]cn1)C(C)C)[C@@H](C)O)C(C)C)[C@@H](C)O)C(=O)O [T-110] (H-HLRKLRKRLLRSLVSQYRQTVTDYGKDL-OH) | – | – | – | – | substantial change in viability | pKd (LDLR; [4]): > 5.00
11 | T-123: variant of peptide T-101 (RSAADALESALKELKRFIREWT) | – | – | greater cholesterol efflux | sustained or improved activity | – | –
12 | DHINKVQRKVTHEIERLFLGQSTEELRVRLASHLRKLRKRLLRDADDLQKRLAVYQA [T-115] | – | – | – | – | substantial change in viability | pKd (LDLR): > 5.00
13 | T-122: variant of peptide T-101 (RAGADALESALKELKRFIREWT) | – | – | greater cholesterol efflux | sustained or improved activity | – | –
14 | CC(C)C[C@H](NC(=O)[C@H](CC(=O)O)NC(=O)[C@H](CCC(=O)O)NC(=O)CNC(=O)[C@H](Cc1ccc(O)cc1)NC(=O)[C@H](CC(=O)O)NC(=O)[C@@H](NC(=O)[C@@H](NC(=O)[C@@H](NC(=O)[C@H](CCC(N)=O)NC(=O)[C@H](CCCNC(=N)N)NC(=O)[C@H](Cc1ccc(O)cc1)NC(=O)[C@H](CCC(N)=O)NC(=O)[C@H](CO)NC(=O)[C@@H](NC(=O)[C@H](CC(C)C)NC(=O)[C@H](CO)NC(=O)[C@H](CCCNC(=N)N)NC(=O)[C@H](CC(C)C)NC(=O)[C@H](CC(C)C)NC(=O)[C@H](CCCNC(=N)N)NC(=O)[C@H](CCCCN)NC(=O)[C@@H](NC(=O)[C@H](CC(C)C)NC(=O)[C@H](CCCCN)NC(=O)[C@H](CCCNC(=N)N)NC(=O)[C@H](CC(C)C)NC(=O)[C@@H](N)Cc1c[nH]cn1)C(C)C)C(C)C)[C@@H](C)O)C(C)C)[C@@H](C)O)C(=O)O [T-111] (H-HLRKLVKRLLRSLVSQYRQTVTDYGEDL-OH) | – | – | – | – | substantial change in viability | pKd (LDLR; [4]): > 5.00
15 | T-172: variant of peptide T-087 (DAWERFRALFKELADYFA) | increased cholesterol efflux | sustained or improved activity | – | – | – | –
16 | T-139: variant of peptide T-101 (RSGADALESALKELKRFIAEWT) | – | – | greater cholesterol efflux | sustained or improved activity | – | –
